# Reference: US20060046972A1, “Cytotoxic nucleoside analog compound 003 for treating cancer” (Parker Hughes Institute, priority 2004, published 2006)
# What was measured:
# Format in all cases: cell-based
# MOLT-3, human T lymphoma = assay: DNA flow cytometry of cell cycle arrest, MOLT-3; conditions: 100 μM, 48 hour
# Description: (§1) Exponentially growing tumor cells were cultured at 1×10^6 cells/ml in clonogenic medium (RPMI 1640 medium +1% penicillin/streptomycin +10% heat-inactivated fetal bovine serum, 2 mML-glutamine, and 10 mM Hepes buffer) in the presence or absence of 100 μM compound 003 for 48 hour at 37° C., 5% CO2. At 48 h, cells were washed two times in fresh clonogenic medium, trypsinized, fixed in ice cold ethanol and labeled with propidium iodide to quantify their DNA content, as described previously (See, for example, Navara, et al., 2001, Anticancer Drugs. 12:369). Quantitative DNA analysis was performed on a Becton Dickenson Calibur flow cytometer equipped with a Consort 40 computer using the COTFIT program, which includes CELLCY, a cell cycle distribution function that fits DNA content histograms and calculates-the percentages of cells in G, S, and GM phases of the cell cycle, as described, for example, in Uckun et al., 1996, J Biol Chem. 271, 6389.
# [1] = tested on: DAUDI, human Burkitt's lymphoma; assay: DNA flow cytometry of cell cycle arrest, DAUDI; conditions: 100 μM, 48 hour
# Description: as §1
# [2] = tested on: human pre-B acute lymphoblastic leukemia (NALM-6); assay: DNA flow cytometry of cell cycle arrest, NALM-6; conditions: 100 μM, 48 hour
# Description: as §1
# [3] = tested on: human T leukemia/lymphoma (JURKAT); assay: DNA flow cytometry of cell cycle arrest, JURKAT; conditions: 100 μM, 48 hour
# Description: as §1
# NALM6 cells = assay: Gene profiling, Atlas Human cDNA Expression arrays
# Description: Gene Profiling using the Atlas Human cDNA Expression arrays from Molecular Dynamics was preformed according to the manufacturer's specification, as described below.
# Total RNA was prepared from NALM6 cells treated with Compound 003 (5, 50TM, vehicle) using Tripure isolation reagent (Boehringer Mannheim); the reagent is a monophasic solution of phenol and guanidine thiocyanate, followed by Dnase treatment (RQ1 Rnase-Free Dnase, Promega). Total RNA was quantified using standard spectrophotometric methods.
# For probe preparation and hybridization, approximately 5 micrograms of total RNA was converted into radioactively labeled cDNA using […] (Amersham) by reverse transcriptase (Clontech). Chroma Spin columns (Clontech) were used to purify labeled cDNA. Atlas cDNA probe was denatured with 1M NaOH/10 mM EDTA and neutralized with 1M NaH2PO4 and C0t-1 DNA at 68° C. Prehybridization solution was discarded and arrays were hybridized overnight. Arrrays were washed 4 times by using 2×SSC/1% SDS and 2 times by using 0.1×SSC/0.5% SDS. Membranes were sealed and exposed to a phosphoscreen (Molecular Dynamics). The expression levels were quantified using 8 bit gray levels using image analysis software (Imagene 4.2, Biodiscovery; Inc).
# For the Atlas Human cDNA Expression array, 588 genes were subdivided into these six functional groups: (A) Oncogenes, Tumor suppressors Cell Cycle regulators, (B) Ion channels and transport, Modulators, stress response, (C) Apoptosis, DNA synthesis, repair and recombination, (D) Transcription factors, DNA binding proteins, (E) Receptors, Cell surface antigens, Cell adhesion & (F) Growth factors, cytokines, chemokines, Interleukins, Hormones. The letters correspond to individual quadrants on the array and may be noted as the first letter in each abbreviation in Table 4.
# Spots on the macro arrays (5, 50 Tm and control) were analyzed using the spot finder technique in the Imagene software. The integrity and fragmentation: due to saturated pixels, of the spots was assessed and appropriate background measurements were chosen to detect signals. […] All drug treated samples (5, 50TM) were compared to no drug controls using a linear regression method for log2 transformed density readings (Genesight 3.1, Biodiscovery). A piecewise linear regression method (3 bins, minimum of 20 elements per bin) was used normalize density readings across the three arrays to minimize the effect of low expression and saturated signals on the regression. All housekeeping genes were monitored for detection of false positive signals.
compound,measurement,setting,value
"COC(=O)C(C)NP(=O)(OCC1OC(n2cc(C)c(=O)[nH]c2=O)CC1N=[N+]=[N-])Oc1ccc(OC)cc1 (centres unmarked) [Compound 003, 3′-azidothymidine 5′-[p-methoxyphenylmethoxyalaninyl phosphate]]",cell cycle arrest,"MOLT-3, human T lymphoma",caused G2 arrest
same,cell cycle arrest,[1],caused G2 arrest
same,cell cycle arrest,[2],G2M cell cycle arrest
same,cell cycle arrest,[3],G2M cell cycle arrest
same,decreased expression of GADD 153 gene,NALM6 cells,~3.5 fold
same,downregulation of c-jun proto-oncogene,NALM6 cells,~2 fold
same,increase in the gene for myeloid cell nuclear differentiation antigen (MNDA),NALM6 cells; 50 μM,~4 fold
same,increased expression of FAN gene,NALM6 cells; 50 μM,3 fold
